Measured values published in patent publication US8119633B2, “Substituted sulfonamide compounds” (Gruenenthal GmbH, priority 2007, dated 2012).

Tests used:
[1] = biological target: T1, human bradykinin receptor 1 (B1R) (Homo sapiens, UniProt P46663); assay: Functional study on the bradykinin receptor 1 (B1R), human: FLIPR Ca2+ influx assay; type: cell-based; conditions: test substance 10 μM; CHO K1 cells transfected with human B1R; Lys-Des-Arg9-bradykinin at EC80; Ca2+ influx (Fluo-4, FLIPR); read-out: B1R antagonism, human [10 μM] % inhibition
T1 construct: expressed in transfected cells; host or cells: CHO K1 cells
T1 sequence (P46663 1-353): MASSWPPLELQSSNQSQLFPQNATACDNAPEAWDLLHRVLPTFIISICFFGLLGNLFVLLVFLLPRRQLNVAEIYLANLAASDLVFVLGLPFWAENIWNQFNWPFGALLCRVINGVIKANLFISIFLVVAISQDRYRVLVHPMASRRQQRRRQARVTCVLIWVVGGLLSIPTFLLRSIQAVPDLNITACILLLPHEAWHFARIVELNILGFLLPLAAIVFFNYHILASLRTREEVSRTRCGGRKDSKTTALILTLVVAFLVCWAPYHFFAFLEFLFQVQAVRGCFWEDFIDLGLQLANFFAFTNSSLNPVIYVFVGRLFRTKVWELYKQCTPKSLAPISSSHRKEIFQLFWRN
Method in brief: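 CHO K1 cells stably expressing human B1R were loaded with Fluo-4, and Ca2+ fluorescence was read on FLIPR (ex 488/em 540 nm). Compound was added first (10 μM for % activation against Lys-Des-Arg9-bradykinin ≥0.5 nM). After 10-20 min, Lys-Des-Arg9-bradykinin was added at EC80 for % inhibition; IC50 came from concentration series, n=2-3, N≥2.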

[2] = biological target: T2, bradykinin receptor 1 (B1R) of the rat (Rattus norvegicus, UniProt P97583); assay: Functional study on the bradykinin receptor 1 (B1R), rat: FLIPR Ca2+ influx assay; type: cell-based; conditions: test substance 10 μM; CHO K1 cells transfected with rat B1R; Des-Arg9-bradykinin at EC80; Ca2+ influx (Fluo-4, FLIPR); read-out: B1R antagonism, rat [10 μM] % inhibition
T2 construct: expressed in transfected cells; host or cells: CHO K1 cells
T2 sequence (P97583 1-337): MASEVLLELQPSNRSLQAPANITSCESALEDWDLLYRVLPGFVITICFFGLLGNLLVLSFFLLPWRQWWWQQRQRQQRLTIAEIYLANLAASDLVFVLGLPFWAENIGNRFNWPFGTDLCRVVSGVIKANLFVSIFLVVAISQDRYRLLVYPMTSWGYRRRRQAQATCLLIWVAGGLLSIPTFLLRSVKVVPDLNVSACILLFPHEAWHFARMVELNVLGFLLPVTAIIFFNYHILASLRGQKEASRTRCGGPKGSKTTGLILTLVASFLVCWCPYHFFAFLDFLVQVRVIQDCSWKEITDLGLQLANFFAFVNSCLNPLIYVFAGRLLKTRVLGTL
Method in brief: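 CHO K1 cells stably expressing rat B1R, Fluo-4-loaded, read on FLIPR (ex 488/em 540 nm, peak fluorescence). Test substances added first (agonism vs 10 μM Des-Arg9-bradykinin), then after 10-20 min Des-Arg9-bradykinin at EC80; % inhibition and IC50 from concentration series, n=2-3, N≥2.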

[3] = biological target: T3, human μ-opiate receptor (Homo sapiens, UniProt P35372); assay: Affinity for the human μ-opiate receptor ([3H]-naloxone displacement, SPA); conditions: test substance 1 μmol/l, inhibition of specific [3H]-naloxone binding, CHO-K1 receptor membrane preparation; for inhibition at 1 µM: read-out: μ-Opioid receptor [1 μM] % inhibition
T3 construct: purchased PerkinElmer Life Sciences, Zaventem, Belgium RB-HOM; host or cells: CHO-K1 cells (membrane preparation)
T3 sequence (P35372 whole entry): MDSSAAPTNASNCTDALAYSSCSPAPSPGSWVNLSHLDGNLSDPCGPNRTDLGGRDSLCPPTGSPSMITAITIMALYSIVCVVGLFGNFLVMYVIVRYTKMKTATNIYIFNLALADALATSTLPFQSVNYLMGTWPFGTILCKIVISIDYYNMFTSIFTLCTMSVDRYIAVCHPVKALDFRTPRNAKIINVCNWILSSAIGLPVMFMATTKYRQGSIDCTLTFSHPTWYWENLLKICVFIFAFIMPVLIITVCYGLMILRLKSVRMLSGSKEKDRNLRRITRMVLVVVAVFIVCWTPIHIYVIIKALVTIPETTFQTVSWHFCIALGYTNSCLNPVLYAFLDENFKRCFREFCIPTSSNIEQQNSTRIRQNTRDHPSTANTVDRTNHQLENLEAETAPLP
Description: Studies of the Effectiveness of the Compounds According to the Invention Method for determining the affinity for the human μ-opiate receptor
The receptor affinity for the human μ-opiate receptor is determined in a homogeneous batch on microtitre plates. To this end, serial dilutions of the substances to be tested are incubated for 90 minutes at room temperature with a receptor membrane preparation (15-40 μg of protein/250 μl of incubation batch) of CHO-K1 cells, which express the human μ-opiate receptor (RB-HOM receptor membrane preparation from PerkinElmer Life Sciences, Zaventem, Belgium), in the presence of 1 nmol/l of the radioactive ligand [^3H]-naloxone (NET719, PerkinElmer Life Sciences, Zaventem, Belgium) and 1 mg of WGA-SPA beads (wheatgerm agglutinin SPA beads from Amersham/Pharmacia, Freiburg, Germany) in a total volume of 250 μl. The incubation buffer used is 50 mmol/l of Tris-HCl supplemented with 0.06 wt. % bovine serum albumin. In order to determine non-specific binding, 100 μmol/l of naloxone is additionally added. When the ninety-minute incubation time has ended, the microtitre plates are centrifuged off for 20 minutes at 1000 g and the radioactivity is measured in a β-counter (Microbeta-Trilux, PerkinElmer Wallac, Freiburg, Germany). The percentage displacement of the radioactive ligand from its binding to the human μ-opiate receptor at a concentration of the test substances of 1 μmol/l is determined and stated as the percentage inhibition of specific binding. On the basis of the percentage displacement by different concentrations of the test substances, IC50 inhibitory concentrations, which effect 50% displacement of the radioactive ligand, are calculated. Ki values for the test substances are obtained by conversion by means of the Cheng-Prusoff equation.

Molecule | inhibition at 10 µM [1] [%] | inhibition at 10 µM [2] [%] | inhibition at 1 µM [3] [%] | μ-Opioid receptor [1 μM] % inhibition [3] [%]
CN1CCN(C(c2ccccc2)C2CCN(C(=O)CC3CCCCN3S(=O)(=O)c3cccc(C(F)(F)F)c3)CC2)CC1 (stereo not drawn) [Example 108, 1-(4-((4-methylpiperazin-1-yl)(phenyl)methyl)piperidin-1-yl)-2-(1-(3-(trifluoromethyl)phenylsulfonyl)piperidin-2-yl)ethanone] | 97 | 78 | 6 | 
O=C(CC1CCCN1S(=O)(=O)c1ccc(Cl)c(Cl)c1)NCC1CCC(C(CCc2ccccc2)N2CCCC2)CC1 (stereo not drawn) [Example 75, 2-[1-(3,4-dichloro-benzenesulfonyl)-pyrrolidin-2-yl]-N-[4-(3-phenyl-1-pyrrolidin-1-yl-propyl)-cyclohexylmethyl]-acetamide] | 91.7 | 2 | 65 | 
O=C(CC1C(=O)NCCN1S(=O)(=O)c1ccc(Cl)cc1Cl)NC1CCC(C(c2ccccc2)N2CCOCC2)CC1 (stereo not drawn) [Example 101, 2-(1-(2,4-dichlorophenylsulfonyl)-3-oxopiperazin-2-yl)-N-(4-(morpholino(phenyl)methyl)cyclohexyl)acetamide] | 104 | 31 | 4 | 
CN(C)C(c1ccccc1)C1CCC(CNC(=O)CCCCN(C)S(=O)(=O)c2c(Cl)cc(Cl)cc2Cl)CC1 (stereo not drawn) [Example 7, N—((4-((Dimethylamino)(phenyl)methyl)cyclohexyl)methyl)-5-(2,4,6-trichloro-N -methylphenylsulfonamido)pentanamide] | 102 | 59 | 96 | 
CN1CCN(C(c2ccccc2)C2CCC(NC(=O)CC3C(=O)Nc4ccccc4N3S(=O)(=O)c3ccc(Cl)c(Cl)c3)CC2)CC1 (stereo not drawn) [Example 70, 2-[1-(3,4-dichloro-benzenesulfonyl)-3-oxo-1,2,3,4-tetrahydro-quinoxalin-2-yl]-N-{4-[(4-methyl-piperazin-1-yl)-phenyl-methyl]-cyclohexyl}-acetamide] | 104 | 98 | 11 | 
Cc1cc(S(=O)(=O)N2CCCCC2CCC(=O)N2CCC(C(c3cccc(F)c3)N3CCN(C)CC3)CC2)c(C)cc1Cl (stereo not drawn) [Example 120, 3-(1-(4-chloro-2,5-dimethylphenylsulfonyl)piperidin-2-yl)-1-(4-((3-fluorophenyl)(4-methylpiperazin-1-yl)methyl)piperidin-1-yl)propan-1-one] | 105 | 73 | 41 | 
CN(C)C(c1cccc(F)c1)C1CCC(CCNC(=O)c2ccccc2N(C)S(=O)(=O)c2ccc(Cl)c(Cl)c2)CC1 (stereo not drawn) [Example 44, 2-[(3,4-dichloro-benzenesulfonyl)-methyl-amino]-N-(2-{4-[dimethylamino-(3-fluoro-phenyl)-methyl]-cyclohexyl}-ethyl)-benzamide] | 46.5 | 18 |  | 
COc1ccc(S(=O)(=O)N2CCc3ccccc3C2CC(=O)NCC2CCC(C(c3ccccc3)N(C)C)CC2)cc1 (stereo not drawn) [Example 17, N-[4-(dimethylamino-phenyl-methyl)-cyclohexylmethyl]-2-[2-(4-methoxybenzenesulfonyl)-1,2,3,4-tetrahydro-isoquinolin-1-yl]-acetamide] | 36.6 | 41 |  | 
CN(C)C(CCc1ccccc1)C1CCC(CCNC(=O)C2Cc3ccccc3N2S(=O)(=O)c2ccc(Cl)c(Cl)c2)CC1 (stereo not drawn) [Example 97, 1-(3,4-dichlorophenylsulfonyl)-N-(2-(4-(1-(dimethylamino)-3-phenylpropyl)cyclohexyl)ethyl)indoline-2-carboxamide] | 16 | 11 |  | 
CN(C)C(c1ccc(F)cc1)C1CCC(NC(=O)CC2c3ccccc3CCN2S(=O)(=O)c2ccc(Cl)c(Cl)c2)CC1 (stereo not drawn) [Example 27, 2-(2-(3,4-dichlorophenylsulfonyl)-1,2,3,4-tetrahydroisoquinolin-1-yl)-N-(4-((dimethylamino)(4-fluorophenyl)methyl)cyclohexyl)acetamide] | 103 | 78 |  | 
CN(C)C(c1ccccc1)C1CCC(CCNC(=O)Cc2ccccc2N(C)S(=O)(=O)c2ccc(Cl)c(Cl)c2)CC1 (stereo not drawn) [Example 98, 2-(2-(3,4-dichloro-N-methylphenylsulfonamido)phenyl)-N-(2-(4-((dimethylamino)(phenyl)methyl)cyclohexyl)ethyl)acetamide] | 66.8 | -8 |  | 
N-(3-(4-((4-fluorophenyl)(4-methylpiperazin-1-yl)methyl)piperidin-1-yl)-3-oxo-1-phenylpropyl)naphthalene-2-sulfonamide [Example 117] |  |  |  | 47
COc1ccc(S(=O)(=O)N2CCc3ccccc3C2CC(=O)NC2CCC(C(c3ccccc3)N(C)C)CC2)cc1 (stereo not drawn) [Example 9, N-[4-(dimethylamino-phenyl-methyl)-cyclohexyl]-2-[2-(4-methoxy-benzenesulfonyl)-1,2,3,4-tetrahydro-isoquinolin-1-yl]-acetamide] | 105 | 0 |  | 
CN(C)C(c1ccccc1)C1CCC(NC(=O)CC2c3ccccc3CCN2S(=O)(=O)c2ccc(Cl)c(Cl)c2)CC1 (stereo not drawn) [Example 10, 2-[2-(3,4-dichloro-benzenesulfonyl)-1,2,3,4-tetrahydro-isoquinolin-1-yl]-N-[4-(dimethylamino-phenyl-methyl)-cyclohexyl]-acetamide] | 70.1 | 0 |  | 
COc1ccc(S(=O)(=O)N2CCc3ccccc3C2CC(=O)NC2CCC(C(c3cccs3)N(C)C)CC2)cc1 (stereo not drawn) [Example 15, N-[4-(dimethylamino-thiophen-2-yl-methyl)-cyclohexyl]-2-[2-(4-methoxybenzenesulfonyl)-1,2,3,4-tetrahydro-isoquinolin-1-yl]-acetamide] | 44.6 | 57 |  | 
CN(C)C(c1ccccc1)C1CCC(CNC(=O)C2Cc3ccccc3N2S(=O)(=O)c2ccc(Cl)c(Cl)c2)CC1 (stereo not drawn) [Example 95, 1-(3,4-dichlorophenylsulfonyl)-N-((4-((dimethylamino)(phenyl)methyl)cyclohexyl)methyl)indoline-2-carboxamide] | 18.6 | -15 |  | 
O=C1NCCN(S(=O)(=O)c2ccc(Cl)cc2Cl)C1CC(=O)N1CCC(C(c2ccccc2)N2CCOCC2)CC1 (stereo not drawn) [Example 62, 4-(2,4-dichloro-benzenesulfonyl)-3-{2-[4-(morpholin-4-yl-phenyl-methyl)piperidin-1-yl]-2-oxo-ethyl}-piperazin-2-one] |  | 27 | 4 | 
